The source of these data is US12441703B2, “Carboxamides as modulators of sodium channels” (VERTEX PHARMACEUTICALS INCORPORATED, priority 2019, dated 2025).

SMILES strings stand for the structures. pIC50: −log10 of the molar value.

The pIC50 is the IC50 on a negative log10 scale, so that one unit is a factor of ten.

This assay deals with human NaV 1.8 (Homo sapiens, UniProt Q9Y5Y9). The assay is described as follows: E-VIPR assay for detecting and measuring NaV inhibition properties. The format is cell-based. The settings on record: E-VIPR assay conducted in the presence of human serum; HEK cells expressing truncated human NaV 1.8; read-out: IC50. In short, it runs like this: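 HEK cells with truncated human NaV1.8 plus KIR2.1 BacMam, hexyl dye loaded 20 min, compound 30 min at room temperature, 11-point 3-fold series […], 0.625% DMSO, with or without human serum. E-VIPR biphasic stimulation at 10 Hz for 10 s; membrane-potential response read as normalized coumarin/oxonol ratio.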
human NaV 1.8, sequence (Q9Y5Y9 whole entry, looked up, the tested form may be a part): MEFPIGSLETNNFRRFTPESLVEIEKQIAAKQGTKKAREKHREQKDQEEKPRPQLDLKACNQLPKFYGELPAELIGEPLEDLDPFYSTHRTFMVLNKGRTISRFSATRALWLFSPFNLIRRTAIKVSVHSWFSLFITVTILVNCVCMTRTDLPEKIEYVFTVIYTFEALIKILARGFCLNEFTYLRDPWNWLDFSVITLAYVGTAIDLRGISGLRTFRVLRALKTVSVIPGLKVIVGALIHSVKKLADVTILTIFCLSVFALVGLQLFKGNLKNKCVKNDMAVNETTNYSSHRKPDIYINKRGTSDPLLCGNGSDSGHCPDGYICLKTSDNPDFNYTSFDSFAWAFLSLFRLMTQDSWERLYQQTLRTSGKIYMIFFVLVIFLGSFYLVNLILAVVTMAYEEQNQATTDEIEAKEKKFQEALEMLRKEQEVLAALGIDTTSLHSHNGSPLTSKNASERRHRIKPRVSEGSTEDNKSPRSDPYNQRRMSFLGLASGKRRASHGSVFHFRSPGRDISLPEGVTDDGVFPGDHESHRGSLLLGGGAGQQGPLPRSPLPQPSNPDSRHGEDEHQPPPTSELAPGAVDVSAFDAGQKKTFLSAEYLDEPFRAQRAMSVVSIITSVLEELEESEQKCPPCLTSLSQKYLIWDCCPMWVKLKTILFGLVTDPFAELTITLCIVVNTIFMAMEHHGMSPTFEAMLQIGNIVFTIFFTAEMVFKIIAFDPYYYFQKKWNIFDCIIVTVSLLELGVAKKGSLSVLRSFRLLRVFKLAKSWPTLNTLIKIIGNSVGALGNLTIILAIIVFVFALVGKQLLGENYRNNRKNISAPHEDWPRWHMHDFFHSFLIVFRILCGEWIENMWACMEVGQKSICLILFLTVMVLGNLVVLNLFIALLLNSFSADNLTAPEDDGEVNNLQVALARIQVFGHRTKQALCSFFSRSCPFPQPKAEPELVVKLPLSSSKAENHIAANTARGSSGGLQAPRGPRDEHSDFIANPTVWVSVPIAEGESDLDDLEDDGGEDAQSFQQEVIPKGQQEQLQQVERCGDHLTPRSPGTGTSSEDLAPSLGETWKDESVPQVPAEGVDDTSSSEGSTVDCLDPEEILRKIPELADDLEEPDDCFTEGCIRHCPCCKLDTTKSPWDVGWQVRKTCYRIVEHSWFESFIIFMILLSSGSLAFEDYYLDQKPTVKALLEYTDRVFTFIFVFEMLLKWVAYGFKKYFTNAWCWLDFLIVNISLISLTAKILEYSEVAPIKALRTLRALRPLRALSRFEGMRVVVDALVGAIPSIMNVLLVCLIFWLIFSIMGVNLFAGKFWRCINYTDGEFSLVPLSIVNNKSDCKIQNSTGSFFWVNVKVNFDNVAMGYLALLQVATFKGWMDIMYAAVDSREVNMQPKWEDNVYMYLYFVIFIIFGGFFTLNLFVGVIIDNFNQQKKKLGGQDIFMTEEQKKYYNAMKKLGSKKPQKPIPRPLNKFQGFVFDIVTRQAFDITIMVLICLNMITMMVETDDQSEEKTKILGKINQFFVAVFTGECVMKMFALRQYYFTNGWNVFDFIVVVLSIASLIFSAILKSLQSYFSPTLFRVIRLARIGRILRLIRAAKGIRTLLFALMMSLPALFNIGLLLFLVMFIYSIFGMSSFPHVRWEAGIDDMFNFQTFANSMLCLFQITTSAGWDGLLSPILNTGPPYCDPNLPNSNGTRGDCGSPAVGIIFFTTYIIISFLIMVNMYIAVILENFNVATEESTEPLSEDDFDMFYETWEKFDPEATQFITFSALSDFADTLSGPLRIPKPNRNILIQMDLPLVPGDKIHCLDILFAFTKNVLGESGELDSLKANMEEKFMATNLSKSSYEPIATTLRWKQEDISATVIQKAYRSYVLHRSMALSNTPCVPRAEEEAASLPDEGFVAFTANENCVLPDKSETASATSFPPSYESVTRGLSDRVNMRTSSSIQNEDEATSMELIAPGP
Take `COc1c(Cl)cc(Oc2ccc(OC(F)(F)F)c(F)c2OC)c(C(=O)Nc2ccnc(C(N)=O)c2)c1F` [Compound 326, 4-[[4-chloro-2-fluoro-6-[3-fluoro-2-methoxy-4-(trifluoromethoxy)phenoxy]-3-methoxy-benzoyl]amino]pyridine-2-carboxamide]: the pIC50 was 8.89.

Turning to `COc1c(Oc2cc3c(c(C)c2C(=O)Nc2ccnc(C(N)=O)c2)OC(F)(F)O3)ccc(OC(F)(F)F)c1F` [Compound 327, 4-[[2,2-difluoro-6-[3-fluoro-2-methoxy-4-(trifluoromethoxy)phenoxy]-4-methyl-1,3-benzodioxole-5-carbonyl]amino]pyridine-2-carboxamide], the pIC50 is 8.08.

In the case of `COc1c(Oc2ccc(C(F)(F)F)c(F)c2C(=O)Nc2cc(C(N)=O)ncn2)ccc(OC(F)(F)F)c1F` [Compound 329, 6-[[2-fluoro-6-[3-fluoro-2-methoxy-4-(trifluoromethoxy)phenoxy]-3-(trifluoromethyl)benzoyl]amino]pyrimidine-4-carboxamide], the pIC50 was 7.90.

In the case of `COc1c(Oc2ccc(C(F)(F)F)c(F)c2C(=O)Nc2cc(C(N)=O)ccn2)ccc(OC(F)(F)F)c1F` [Compound 330, 2-[[2-fluoro-6-[3-fluoro-2-methoxy-4-(trifluoromethoxy)phenoxy]-3-(trifluoromethyl)benzoyl]amino]pyridine-4-carboxamide], the pIC50 was 7.54.

Regarding `COc1c(Oc2ccc(C(F)(F)F)c(F)c2C(=O)Nc2cnc(C(N)=O)nc2)ccc(OC(F)(F)F)c1F` [Compound 331, 5-[[2-fluoro-6-[3-fluoro-2-methoxy-4-(trifluoromethoxy)phenoxy]-3-(trifluoromethyl)benzoyl]amino]pyrimidine-2-carboxamide], the pIC50 was 8.34.

On to `COc1c(Oc2cnc(C(F)(F)F)c(F)c2C(=O)Nc2ccnc(C(N)=O)c2)ccc(OC(F)(F)F)c1F` [Compound 332, N-(2-carbamoyl-4-pyridyl)-3-fluoro-5-[3-fluoro-2-methoxy-4-(trifluoromethoxy)phenoxy]-2-(trifluoromethyl)pyridine-4-carboxamide], for which the negative logarithm of the IC50 (pIC50) was 8.57.

Turning to `COc1c(Oc2cnc(C(F)(F)F)c(OC)c2C(=O)Nc2ccnc(C(N)=O)c2)ccc(OC(F)(F)F)c1F` [Compound 333, N-(2-carbamoyl-4-pyridyl)-5-[3-fluoro-2-methoxy-4-(trifluoromethoxy)phenoxy]-3-methoxy-2-(trifluoromethyl)pyridine-4-carboxamide], the negative logarithm of the IC50 (pIC50) was 8.31.

As for `COc1c(Oc2cnc(C(F)(F)F)c(OC)c2C(=O)Nc2cc(C(N)=O)ncc2C)ccc(OC(F)(F)F)c1F` [Compound 334, N-(2-carbamoyl-5-methyl-4-pyridyl)-5-[3-fluoro-2-methoxy-4-(trifluoromethoxy)phenoxy]-3-methoxy-2-(trifluoromethyl)pyridine-4-carboxamide], the negative-log IC50 (pIC50) was 8.15.

`COc1c(Oc2cnc(C(F)(F)F)c(C)c2C(=O)Nc2cnc(C(N)=O)nc2)ccc(OC(F)(F)F)c1F` [Compound 335, 5-[[5-[3-fluoro-2-methoxy-4-(trifluoromethoxy)phenoxy]-3-methyl-2-(trifluoromethyl)pyridine-4-carbonyl]amino]pyrimidine-2-carboxamide]: the pIC50 is 7.81.

On to `COc1c(Oc2cnc(C(F)(F)F)c(C)c2C(=O)Nc2cc(C(N)=O)ncc2C)ccc(OC(F)(F)F)c1F` [Compound 336, N-(2-carbamoyl-5-methyl-4-pyridyl)-5-[3-fluoro-2-methoxy-4-(trifluoromethoxy)phenoxy]-3-methyl-2-(trifluoromethyl)pyridine-4-carboxamide], for which the pIC50 was 8.25.

For the molecule `COc1c(Oc2cnc(C(F)(F)F)c(C)c2C(=O)Nc2ccc(C(N)=O)nc2)ccc(OC(F)(F)F)c1F` [Compound 337, N-(6-carbamoyl-3-pyridyl)-5-[3-fluoro-2-methoxy-4-(trifluoromethoxy)phenoxy]-3-methyl-2-(trifluoromethyl)pyridine-4-carboxamide], the pIC50 is 7.69.

As to `Cc1c(Oc2ccc(C(F)(F)F)c(F)c2C(=O)Nc2ccnc(C(N)=O)c2)ccc(F)c1Cl` [Compound 338, 4-[[6-(3-chloro-4-fluoro-2-methyl-phenoxy)-2-fluoro-3-(trifluoromethyl)benzoyl]amino]pyridine-2-carboxamide], the pIC50 was 7.33.

As for `NC(=O)c1cc(NC(=O)c2c(Oc3ccc(F)c(F)c3Cl)ccc(C(F)(F)F)c2F)ccn1` [Compound 339, 4-[[6-(2-chloro-3,4-difluoro-phenoxy)-2-fluoro-3-(trifluoromethyl)benzoyl]amino]pyridine-2-carboxamide], the pIC50 was 7.57.

As to `NC(=O)c1cc(NC(=O)c2c(Oc3c(F)ccc(F)c3C3CC3)ccc(C(F)(F)F)c2F)ccn1` [Compound 340, 4-[[6-(2-cyclopropyl-3,6-difluoro-phenoxy)-2-fluoro-3-(trifluoromethyl)benzoyl]amino]pyridine-2-carboxamide], the negative-log IC50 (pIC50) is under 5.52.

Consider `COc1cc(C(F)F)ccc1Oc1ccc(C(F)(F)F)c(F)c1C(=O)Nc1ccnc(C(N)=O)c1` [Compound 341, 4-[[6-[4-(difluoromethyl)-2-methoxy-phenoxy]-2-fluoro-3-(trifluoromethyl)benzoyl]amino]pyridine-2-carboxamide], for which the negative logarithm of the IC50 (pIC50) was 6.48.

Regarding `COc1c(Oc2ccc(C(F)(F)F)c(F)c2C(=O)Nc2ccnc(C(N)=O)c2)ccc(OC(F)F)c1F` [Compound 343, 4-[[6-[4-(difluoromethoxy)-3-fluoro-2-methoxy-phenoxy]-2-fluoro-3-(trifluoromethyl)benzoyl]amino]pyridine-2-carboxamide], the pIC50 is 8.32.

With `CCc1c(Oc2ccc(C(F)(F)F)c(F)c2C(=O)Nc2ccnc(C(N)=O)c2)ccc(OC(F)(F)F)c1F` [Compound 344, 4-[[6-[2-ethyl-3-fluoro-4-(trifluoromethoxy)phenoxy]-2-fluoro-3-(trifluoromethyl)benzoyl]amino]pyridine-2-carboxamide], the pIC50 is 8.33.

For `NC(=O)c1cc(NC(=O)c2c(Oc3ccc(OC(F)(F)F)c(F)c3C3CC3)ccc(C(F)(F)F)c2F)ccn1` [Compound 345, 4-[[6-[2-cyclopropyl-3-fluoro-4-(trifluoromethoxy)phenoxy]-2-fluoro-3-(trifluoromethyl)benzoyl]amino]pyridine-2-carboxamide], the pIC50 was 8.60.

On to `CCOc1cc(OC(F)(F)F)ccc1Oc1ccc(C(F)(F)F)c(F)c1C(=O)Nc1ccnc(C(N)=O)c1` [Compound 346, 4-[[6-[2-ethoxy-4-(trifluoromethoxy)phenoxy]-2-fluoro-3-(trifluoromethyl)benzoyl]amino]pyridine-2-carboxamide], for which the pIC50 was 8.24.

With `CCOc1cc(OC(F)(F)F)ccc1Oc1cc(OC)c(C(F)(F)F)c(F)c1C(=O)Nc1ccnc(C(N)=O)c1` [Compound 347, 4-[[6-[2-ethoxy-4-(trifluoromethoxy)phenoxy]-2-fluoro-4-methoxy-3-(trifluoromethyl)benzoyl]amino]pyridine-2-carboxamide], the pIC50 is 8.51.

Consider `COc1cc(Oc2ccc(F)c(F)c2C)c(C(=O)Nc2ccnc(C(N)=O)c2)c(F)c1C(F)(F)F` [Compound 348, 4-[[6-(3,4-difluoro-2-methyl-phenoxy)-2-fluoro-4-methoxy-3-(trifluoromethyl)benzoyl]amino]pyridine-2-carboxamide], for which the pIC50 was 7.70.
